# Target: T1, androgen receptor (AR) splicing variant AR-v7 (Homo sapiens, UniProt P10275)
# T1 construct: The degradation activity of compounds on AR-v7 in 22RV1 cells; host or cells: 22RV1 cells
# T1 sequence (P10275 1-644 isoform P10275-3): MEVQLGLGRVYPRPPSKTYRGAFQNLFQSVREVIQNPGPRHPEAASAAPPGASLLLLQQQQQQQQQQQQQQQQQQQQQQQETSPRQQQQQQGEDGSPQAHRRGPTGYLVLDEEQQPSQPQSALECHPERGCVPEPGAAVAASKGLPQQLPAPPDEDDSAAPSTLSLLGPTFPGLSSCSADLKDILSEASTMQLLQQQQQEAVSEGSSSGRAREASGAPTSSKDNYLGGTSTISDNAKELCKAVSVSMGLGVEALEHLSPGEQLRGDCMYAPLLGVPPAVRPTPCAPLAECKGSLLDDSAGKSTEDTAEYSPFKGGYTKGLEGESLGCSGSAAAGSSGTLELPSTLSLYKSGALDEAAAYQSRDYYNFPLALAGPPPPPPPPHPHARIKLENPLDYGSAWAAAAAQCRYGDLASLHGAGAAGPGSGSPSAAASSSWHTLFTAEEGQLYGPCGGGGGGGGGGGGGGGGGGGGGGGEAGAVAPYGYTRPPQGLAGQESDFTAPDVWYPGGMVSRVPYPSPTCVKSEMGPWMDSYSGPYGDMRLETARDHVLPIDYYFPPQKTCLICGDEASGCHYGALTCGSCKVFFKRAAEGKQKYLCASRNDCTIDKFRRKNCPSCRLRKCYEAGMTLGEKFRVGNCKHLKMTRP
# Test: Degradation activity on androgen receptor splicing variant AR-v7 in 22RV1 cells (ELISA)
# Assay type: cell-based
# Details: AR-v7 degradation in 22RV1 cells, 48 h, class symbols
# Protocol: The degradation activity of the compound of the present invention on the androgen receptor splicing variant AR-V7 was analyzed using enzyme-linked immunosorbent assay (ELISA).
# The plate was cultured in a 5% CO2 cell incubator at 37° C. for 2 days until the cells adhered to the wall. • 2) The drug was prepared into 10 mM stock solution with dimethylsulfoxide (DMSO). […] The plate was gently shaken and mixed. In addition, negative control wells (only containing culture medium) and positive control wells (only containing cells and DMSO) were set. • 3) After the cells were cultured in an incubator for 48 h, the medium was removed and the cells were rinsed once with ice cold PBS. Then, ice-cold 1× cell lysis buffer was added to each well of the cell culture plate. After the plate was incubated on ice for 15 min, the plate was tapped to mix. • 4) The supernatant of the cell lysate was transferred from the cell culture plate to a […] plate for ELISA. • 5) The newly prepared Capture antibody (green) was mixed with the newly prepared HRP-labeled antibody (red), and then the antibody mixture was added to the above 96-well ELISA plate. • 6) The ELISA plate was sealed with plastic film, and then incubated in a 25° C. incubator for 1 h. • 7) The washing buffer was added to each well, and then TMB substrate was added to each well of the ELISA plate. Subsequently, the plate was cultured in an incubator at 37° C. for 5 min. • 8) 100 μl of stop solution was added to each well of the ELISA plate, and the plate was gently tapped for several seconds. The absorbance was read at 450 nm within 30 min. The data were analyzed by the Dose-response equation in the software GraphPad Prism8, to obtain DC50 and Dmax values.
row,Molecule,DC50 [µM]
1,"5-(((1s,3s)-3-(4-(2-(4-((2-(2H-1,2,3-triazol-2-yl)pyrimidin-5-yl)oxy)phenyl)propan-2-yl)phenoxy)cyclobutyl)amino)-2-(2,6-dioxopiperidin-3-yl)isoindolin-1,3-dione [Example 482]",0.011 to 0.1
2,"CC(C)(c1ccc(OCc2ccnc(N3CC4(COC4)C3)n2)cc1)c1ccc(OC2CCC[C@@H](Nc3ccc4c(c3)C(=O)N(C3CCC(=O)NC3=O)C4=O)C2)cc1 (stereo in doubt) [Example 493, 5-((3-(4-(2-(4-((2-(2-oxa-6-azaspiro[3.3]heptan-6-yl)pyrimidin-4-yl)methoxy)phenyl)propan-2-yl)phenoxy)cyclohexyl)amino)-2-(2,6-dioxopiperidin-3-yl)isoindolin-1,3-dione]",0.101 to 1
3,"CC(C)(c1ccc(OCCCCCCCCOCCN2CCN(c3ccc4c(c3)C(=O)N(C3CCC(=O)NC3=O)C4=O)CC2)cc1)c1ccc(OCc2ccnc(NS(C)(=O)=O)n2)cc1 (stereo not shown) [Example 1, N-(4-((4-(2-(4-((8-(2-(4-(2-(2,6-dioxopiperidin-3-yl)-1,3-dioxoisoindolin-5-yl)piperazin-1-yl)ethoxy)octyl)oxy)phenyl)propan-2-yl)phenoxy)methyl)pyrimidin-2-yl)methanesulfonamide]",0.101 to 1
4,"CC(C)(c1ccc(OCCCCCCCOCCN2CCN(c3ccc4c(c3)C(=O)N(C3CCC(=O)NC3=O)C4=O)CC2)cc1)c1ccc(OCc2ccnc(NS(C)(=O)=O)n2)cc1 (stereo not shown) [Example 2, N-(4-((4-(2-(4-((7-(2-(4-(2-(2,6-dioxopiperidin-3-yl)-1,3-dioxoisoindolin-5-yl)piperazin-1-yl)ethoxy)heptyl)oxy)phenyl)propan-2-yl)phenoxy)methyl)pyrimidin-2-yl)methanesulfonamide]",0.101 to 1
5,"CC(C)(c1ccc(OCCCCCOc2ccc3c(c2)C(=O)N(C2CCC(=O)NC2=O)C3=O)cc1)c1ccc(OCc2ccnc(NS(C)(=O)=O)n2)cc1 (stereo not shown) [Example 9, N-(4-((4-(2-(4-((5-((2-(2,6-dioxopiperidin-3-yl)-1,3-dioxoisoindolin-5-yl)oxy)pentyl)oxy)phenyl)propan-2-yl)phenoxy)methyl)pyrimidin-2-yl)methanesulfonamide]",1 to 5
6,"CC(C)(c1ccc(OCCCCNc2cccc3c2C(=O)N(C2CCC(=O)NC2=O)C3=O)cc1)c1ccc(OCc2ccnc(NS(C)(=O)=O)n2)cc1 (stereo not shown) [Example 10, N-(4-((4-(2-(4-(4-((2-(2,6-dioxopiperidin-3-yl)-1,3-dioxoisoindolin-yl)amino)butoxy)phenyl)propan-2-yl)phenoxy)methyl)pyrimidin-2-yl)methanesulfonamide]",1 to 5
7,"CC(C)(c1ccc(OCCCN2CCN(CC3CCN(CC4CN(c5ccc6c(c5)C(=O)N(C5CCC(=O)NC5=O)C6=O)C4)CC3)CC2)cc1)c1ccc(OCc2ccnc(NS(C)(=O)=O)n2)cc1 (stereo not shown) [Example 11, N-(4-((4-(2-(4-(3-(4-((1-((1-(2-(2,6-dioxopiperidin-3-yl)-1,3-dioxoisoindolin-5-yl)azetidin-3-yl)methyl)piperidin-4-yl)methyl)piperazin-1-yl)propoxy)phenyl)propan-2-yl)phenoxy)methyl)pyrimidin-2-yl)methanesulfonamide]",1 to 5
8,CC(C)(c1ccc(OCc2ccnc(NS(C)(=O)=O)n2)cc1)c1ccc(OC2CCN(CC3CCN(CC4CCN(CC5CN(c6ccc7c(c6)C(=O)N(C6CCC(=O)NC6=O)C7=O)C5)CC4)CC3)CC2)cc1 (stereo not shown) [Example 12],1 to 5
9,CC(C)(c1ccc(OCCCOCCCNc2cccc3c2C(=O)N(C2CCC(=O)NC2=O)C3=O)cc1)c1ccc(OCc2ccnc(NS(C)(=O)=O)n2)cc1 (stereo not shown) [Example 17],1 to 5
10,"CC(C)(c1ccc(OCCCOCCCOCCCNc2ccc3c(c2)C(=O)N(C2CCC(=O)NC2=O)C3=O)cc1)c1ccc(OCc2ccnc(NS(C)(=O)=O)n2)cc1 (stereo not shown) [Example 20, N-(4-((4-(2-(4-(3-(3-(3-((2-(2,6-dioxopiperidin-3-yl)-1,3-dioxoisoindolin-5-yl)amino)propoxy)propoxy)propoxy)phenyl)propan-2-yl)phenoxy)methyl)pyrimidin-2-yl)methanesulfonamide]",1 to 5

# Same assay, conditions: AR-v7 degradation in 22RV1 cells, 48 h, numeric values
row,Molecule,DC50 [µM]
1,CC(C)(c1ccc(OCCCCOCCCCN2CCC3(CC2)CN(c2ccc4c(c2)C(=O)N(C2CCC(=O)NC2=O)C4=O)C3)cc1)c1ccc(OCc2ccnc(NS(C)(=O)=O)n2)cc1 (stereo not shown) [Example 3],> 10
2,CC(C)(c1ccc(OCCCOCCCN2CCC3(CC2)CN(c2ccc4c(c2)C(=O)N(C2CCC(=O)NC2=O)C4=O)C3)cc1)c1ccc(OCc2ccnc(NS(C)(=O)=O)n2)cc1 (stereo not shown) [Example 4],> 10
3,"CC(C)(c1ccc(OCCCCCCCCCN2CCN(C3CN(c4ccc5c(c4)C(=O)N(C4CCC(=O)NC4=O)C5=O)C3)CC2)cc1)c1ccc(OCc2ccnc(NS(C)(=O)=O)n2)cc1 (stereo not shown) [Example 5, N-(4-((4-(2-(4-((9-(4-(1-(2-(2,6-dioxopiperidin-3-yl)-1,3-dioxoisoindolin-5-yl)azetidin-3-yl)piperazin-1-yl)nonyl)oxy)phenyl)propan-2-yl)phenoxy)methyl)pyrimidin-2-yl)methanesulfonamide]",> 10
4,CC(C)(c1ccc(OCCCCCCN2CCC(CN3CCN(c4ccc5c(c4)C(=O)N(C4CCC(=O)NC4=O)C5=O)CC3)CC2)cc1)c1ccc(OCc2ccnc(NS(C)(=O)=O)n2)cc1 (stereo not shown) [Example 6],6.33
5,"CC(C)(c1ccc(OCCCCCCCOCCCN2CCN(c3ccc4c(c3)C(=O)N(C3CCC(=O)NC3=O)C4=O)CC2)cc1)c1ccc(OCc2ccnc(NS(C)(=O)=O)n2)cc1 (stereo not shown) [Example 7, N-(4-((4-(2-(4-((7-(3-(4-(2-(2,6-dioxopiperidin-3-yl)-1,3-dioxoisoindolin-5-yl)piperazin-1-yl)propoxy)heptyl)oxy)phenyl)propan-2-yl)phenoxy)methyl)pyrimidin-2-yl)methanesulfonamide]",> 10
6,"CC(C)(c1ccc(OCCCCCCOCCCCN2CCN(c3ccc4c(c3)C(=O)N(C3CCC(=O)NC3=O)C4=O)CC2)cc1)c1ccc(OCc2ccnc(NS(C)(=O)=O)n2)cc1 (stereo not shown) [Example 8, N-(4-((4-(2-(4-((6-(4-(4-(2-(2,6-dioxopiperidin-3-yl)-1,3-dioxoisoindolin-5-yl)piperazin-1-yl)butoxy)hexyl)oxy)phenyl)propan-2-yl)phenoxy)methyl)pyrimidin-2-yl)methanesulfonamide]",5.27
7,"CC(C)(c1ccc(OCc2ccnc(NS(C)(=O)=O)n2)cc1)c1ccc(OCC2CCN(CCCCOCCCCNc3ccc4c(c3)C(=O)N(C3CCC(=O)NC3=O)C4=O)C2)cc1 (stereo not shown) [Example 13, N-(4-((4-(2-(4-((1-(4-(4-(4-)((2-(2,6-dioxopiperidin-3-yl)-1,3-dioxoisoindolin-5-yl)amino)butoxy)butyl)pyrrolidin-3-yl)methoxy)phenyl)propan-2-yl)phenoxy)methyl)pyrimidin-2-yl)methanesulfonamide]",6.97
8,CC(C)(c1ccc(OCc2ccnc(NS(C)(=O)=O)n2)cc1)c1ccc(OC2CN(CCCCCOCCCCNc3ccc4c(c3)C(=O)N(C3CCC(=O)NC3=O)C4=O)C2)cc1 (stereo not shown) [Example 14],> 10
9,CC(C)(c1ccc(OCc2ccnc(NS(C)(=O)=O)n2)cc1)c1ccc(OC2CCN(CCCCCOCCCCNc3ccc4c(c3)C(=O)N(C3CCC(=O)NC3=O)C4=O)CC2)cc1 (stereo not shown) [Example 15],> 10
10,CC(C)(c1ccc(OCc2ccnc(NS(C)(=O)=O)n2)cc1)c1ccc(OCC2CCN(CCCOCCCCNc3ccc4c(c3)C(=O)N(C3CCC(=O)NC3=O)C4=O)CC2)cc1 (stereo not shown) [Example 16],> 10
11,CC(C)(c1ccc(OCCCOCCCNc2ccc3c(c2)C(=O)N(C2CCC(=O)NC2=O)C3=O)cc1)c1ccc(OCc2ccnc(NS(C)(=O)=O)n2)cc1 (stereo not shown) [Example 18],> 10
12,"CC(C)(c1ccc(OCCCOCCCOCCCNc2cccc3c2C(=O)N(C2CCC(=O)NC2=O)C3=O)cc1)c1ccc(OCc2ccnc(NS(C)(=O)=O)n2)cc1 (stereo not shown) [Example 19, N-(4-((4-(2-(4-(3-(3-(3-((2-(2,6-dioxopiperidin-3-yl)-1,3-dioxoisoindolin-4-yl)amino)propoxy)propoxy)propoxy)phenyl)propan-2-yl)phenoxy)methyl)pyrimidin-2-yl)methanesulfonamide]",6.86

# — patent US20250051347A1, “BIFUNCTIONAL CHIMERIC HETEROCYCLIC COMPOUND AND USE THEREOF AS ANDROGEN RECEPTOR DEGRADER” (Hinova Pharmaceuticals, Inc., priority 2021, published 2025)
